# Test results from patent publication EP0511903B1, “Conjugate of calcitonin and polyethylene glycol” (TEVA PHARMACEUTICAL INDUSTRIES LTD., priority 1991, dated 1998).
# Ends that are not written are not given here. amino‑PEG = not defined here
# System: 2 anticorps monoclonaux reconnaissant 2 épitopes différents sur la calcitonine humaine
# Experiment: Immunoradiometric assay (IRMA) for human calcitonin using 2 monoclonal antibodies
# Type: binding
# Conditions: IRMA with 2 monoclonal antibodies
# Description: Un conjugué de polyéthylène glycol aminé couplé sur l'acide aspartique de la calcitonine humaine a été synthétisé suivant la méthode décrite à l'exemple 2. On dispose d'un dosage immunoradiométrique pour la Calcitonine humaine, utilisant 2 anticorps monoclonaux reconnaissant 2 épitopes différents sur la calcitonine humaine. Par ce dosage, le dérivé PEG-NH2-CTH n'est plus reconnu qu'à 0.4 % par rapport à la calcitonine humaine. Ceci signifie qu'au moins un épitope de la calcitonine humaine se trouve masqué par le couplage en position 15 d'une molécule de PEG. Il y a donc une modification de l'antigénicité de la calcitonine, de par son couplage au PEG, qui diminue fortement sa reconnaissance par des anticorps.
substance,measurement,value
"PEG NH2-CThumaine: conjugué de polyéthylène glycol aminé couplé sur l'acide aspartique (position 15) de la calcitonine humaine (CGNLSTCMLGTYTQD(amino‑PEG)FNKFHTFPQTAIGVGAP; ends and bridges not checked; UniProt P01258 85-116, looked up)",reconnaissance par rapport à la calcitonine humaine,0.4%
